Assay results as given in patent US20250270180A1, “MEK INHIBITORS AND THERAPEUTIC USES THEREOF” (Immuneering Corporation, priority 2020, published 2025).

Legend:
CYP450 2C19 = CYP450 2C19 (Homo sapiens, UniProt P33261); test: CYP450 panel, 2C19; conditions: 10 μM; substrate mephenytoin
[1] = Microsome stability, human; assay type: in vitro ADME; conditions: microsomes, 2 μM
CYP450 3A4 = CYP450 3A4 (Homo sapiens, UniProt P08684); test: CYP450 panel, 3A4; conditions: 10 μM; for 3A4*: substrate midazolam; for 3A4^: substrate testosterone
CYP450 3A4, sequence (P08684 whole entry): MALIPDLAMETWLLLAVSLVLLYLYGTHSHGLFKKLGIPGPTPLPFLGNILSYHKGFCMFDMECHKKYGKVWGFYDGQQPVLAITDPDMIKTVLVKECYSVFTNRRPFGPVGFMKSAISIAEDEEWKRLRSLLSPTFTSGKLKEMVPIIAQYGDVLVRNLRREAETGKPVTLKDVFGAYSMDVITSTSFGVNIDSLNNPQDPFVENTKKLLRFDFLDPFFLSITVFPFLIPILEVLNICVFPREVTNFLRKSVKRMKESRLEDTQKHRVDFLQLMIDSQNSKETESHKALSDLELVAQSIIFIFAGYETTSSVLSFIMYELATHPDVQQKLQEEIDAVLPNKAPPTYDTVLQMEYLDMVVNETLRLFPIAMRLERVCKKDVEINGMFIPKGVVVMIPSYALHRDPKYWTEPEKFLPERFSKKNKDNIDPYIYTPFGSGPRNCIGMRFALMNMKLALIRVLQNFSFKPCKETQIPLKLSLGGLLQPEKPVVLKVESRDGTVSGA

CYP450 2C9 = CYP450 2C9 (Homo sapiens, UniProt P11712); test: CYP450 panel, 2C9; conditions: 10 μM; substrate Diclofenac
CYP450 2C9, sequence (P11712 whole entry): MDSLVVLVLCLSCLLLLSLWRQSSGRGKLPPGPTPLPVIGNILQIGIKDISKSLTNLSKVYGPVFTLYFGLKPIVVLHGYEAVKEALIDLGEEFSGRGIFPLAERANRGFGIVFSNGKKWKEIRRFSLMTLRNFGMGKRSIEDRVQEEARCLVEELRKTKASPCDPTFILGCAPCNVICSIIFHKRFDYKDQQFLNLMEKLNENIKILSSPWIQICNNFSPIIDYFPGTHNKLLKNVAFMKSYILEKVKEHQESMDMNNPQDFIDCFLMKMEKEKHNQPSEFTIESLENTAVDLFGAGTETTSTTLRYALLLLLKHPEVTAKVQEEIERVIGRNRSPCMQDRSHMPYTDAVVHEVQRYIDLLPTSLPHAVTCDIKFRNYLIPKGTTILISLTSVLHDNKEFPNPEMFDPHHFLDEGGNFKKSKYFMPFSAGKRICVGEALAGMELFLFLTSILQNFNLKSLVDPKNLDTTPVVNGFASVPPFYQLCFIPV

[2] = Absorption & efflux: Caco-2 permeability; conditions: human
[3] = tested on: A549 CRAF BP (MEK phosphorylation); test: A549-CRAF BP 100 nM, 2 h (pMEK); assay type: cell-based; conditions: Homo sapiens, A549, 2 h, phospho:total ratio normalized to DMSO control
Experimental: (§1) A549 or […] cells were treated in duplicate for two hours with compounds at varying concentrations. After two hours, the cells were lysed, snap frozen, and stored at −80° C. After storage, the lysate was quantified with the Bradford assay. Before the lysates were prepared to run on the Jess, the lysates were diluted to 1 mg/mL for pERK analysis and 1.5 mg/mL pMEK analysis using quantitative Western blotting. ERK and MEK phosphorylation levels were estimated by taking the ratio of phospho-protein to total protein and normalizing to the DMSO control. The results of this study are described in Tables 14-16.

[4] = Plasma stability, beagle dog; assay type: in vitro ADME; conditions: 2 μM
A549 pERK = test: A549-pERK, 2 h (quantitative Western, Jess); assay type: cell-based; conditions: Homo sapiens, A549, 2 h, phospho:total ratio normalized to DMSO control; for activity at 0.01 µM: 10 nM
Experimental: as §1

CYP450 1A2 = biological target: T1, CYP450 1A2 (Homo sapiens, UniProt P05177); test: CYP450 panel, 1A2; assay type: in vitro ADME; conditions: 10 μM; substrate phenacetin
T1 sequence (P05177 1-516): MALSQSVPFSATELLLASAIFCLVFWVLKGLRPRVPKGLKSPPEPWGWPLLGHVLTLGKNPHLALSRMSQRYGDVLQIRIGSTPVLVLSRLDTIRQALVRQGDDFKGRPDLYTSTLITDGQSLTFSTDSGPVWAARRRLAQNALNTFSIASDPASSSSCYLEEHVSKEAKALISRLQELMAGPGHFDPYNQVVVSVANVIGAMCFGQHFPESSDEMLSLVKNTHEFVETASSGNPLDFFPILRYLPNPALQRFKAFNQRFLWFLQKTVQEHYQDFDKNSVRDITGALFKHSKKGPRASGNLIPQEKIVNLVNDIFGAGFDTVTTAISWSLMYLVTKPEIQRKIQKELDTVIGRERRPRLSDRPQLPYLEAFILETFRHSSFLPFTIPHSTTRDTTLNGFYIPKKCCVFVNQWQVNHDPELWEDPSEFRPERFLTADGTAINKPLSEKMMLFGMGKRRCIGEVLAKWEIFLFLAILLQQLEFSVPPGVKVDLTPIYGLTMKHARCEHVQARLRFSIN

[5] = Microsome stability, CD-1 mouse; conditions: microsomes, 2 μM
[6] = Microsome stability, beagle dog; assay type: in vitro ADME; conditions: microsomes, 2 μM
[7] = Plasma stability, CD-1 mouse; assay type: in vitro ADME; conditions: 2 μM
Plasma stability, human = assay type: in vitro ADME; conditions: 2 μM
CYP450 2B6 = biological target: T2, CYP450 2B6 (Homo sapiens, UniProt P20813); test: CYP450 panel, 2B6; conditions: 10 μM; substrate bupropion
T2 sequence (P20813 1-491): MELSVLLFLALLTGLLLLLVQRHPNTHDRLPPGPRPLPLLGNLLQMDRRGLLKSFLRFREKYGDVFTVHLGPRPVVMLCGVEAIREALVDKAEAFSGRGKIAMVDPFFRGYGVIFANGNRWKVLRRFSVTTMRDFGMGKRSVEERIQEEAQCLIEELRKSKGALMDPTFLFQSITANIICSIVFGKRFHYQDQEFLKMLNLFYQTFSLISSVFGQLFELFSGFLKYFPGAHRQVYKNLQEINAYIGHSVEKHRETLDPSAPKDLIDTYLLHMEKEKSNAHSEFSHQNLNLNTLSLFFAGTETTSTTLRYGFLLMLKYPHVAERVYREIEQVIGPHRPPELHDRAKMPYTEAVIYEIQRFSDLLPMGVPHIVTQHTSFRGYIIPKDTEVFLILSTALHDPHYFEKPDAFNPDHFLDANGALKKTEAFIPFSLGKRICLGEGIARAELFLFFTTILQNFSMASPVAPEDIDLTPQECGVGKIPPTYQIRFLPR

hERG Channel = hERG Channel (Homo sapiens, UniProt Q12809); test: cell-based
hERG Channel, sequence (Q12809 whole entry): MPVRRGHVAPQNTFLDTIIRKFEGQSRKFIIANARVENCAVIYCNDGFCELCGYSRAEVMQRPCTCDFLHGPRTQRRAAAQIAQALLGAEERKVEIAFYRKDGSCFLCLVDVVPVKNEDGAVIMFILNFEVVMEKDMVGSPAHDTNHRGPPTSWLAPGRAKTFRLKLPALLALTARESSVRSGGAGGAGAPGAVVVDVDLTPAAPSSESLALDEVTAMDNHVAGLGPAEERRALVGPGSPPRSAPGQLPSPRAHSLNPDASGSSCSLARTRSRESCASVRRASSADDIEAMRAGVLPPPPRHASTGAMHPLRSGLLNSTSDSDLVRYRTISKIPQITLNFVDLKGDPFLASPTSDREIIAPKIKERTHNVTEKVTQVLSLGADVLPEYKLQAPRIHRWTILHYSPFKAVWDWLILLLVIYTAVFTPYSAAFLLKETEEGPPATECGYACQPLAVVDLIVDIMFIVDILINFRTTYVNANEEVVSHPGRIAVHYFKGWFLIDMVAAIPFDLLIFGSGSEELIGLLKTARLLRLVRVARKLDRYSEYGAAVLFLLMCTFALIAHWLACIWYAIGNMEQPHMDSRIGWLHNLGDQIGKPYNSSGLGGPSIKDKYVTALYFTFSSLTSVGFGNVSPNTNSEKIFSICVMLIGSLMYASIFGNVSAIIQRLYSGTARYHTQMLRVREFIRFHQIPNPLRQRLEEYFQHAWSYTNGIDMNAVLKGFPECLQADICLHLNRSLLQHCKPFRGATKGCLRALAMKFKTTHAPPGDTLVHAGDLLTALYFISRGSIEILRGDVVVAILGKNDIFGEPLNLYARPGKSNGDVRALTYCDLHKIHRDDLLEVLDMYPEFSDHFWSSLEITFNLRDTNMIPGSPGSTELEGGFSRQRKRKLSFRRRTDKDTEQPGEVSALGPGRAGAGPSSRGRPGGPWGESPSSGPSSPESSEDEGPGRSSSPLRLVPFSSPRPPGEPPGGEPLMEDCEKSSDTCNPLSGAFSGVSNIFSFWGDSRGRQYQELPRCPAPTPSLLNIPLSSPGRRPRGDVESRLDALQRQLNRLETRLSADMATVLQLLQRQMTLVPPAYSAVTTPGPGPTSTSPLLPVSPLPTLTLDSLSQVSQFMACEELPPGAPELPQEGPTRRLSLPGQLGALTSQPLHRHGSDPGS

CYP450 2C8 = biological target: T3, CYP450 2C8 (Homo sapiens, UniProt P10632); test: CYP450 panel, 2C8; conditions: 10 μM; substrate amodiaquine
T3 sequence (P10632 1-490): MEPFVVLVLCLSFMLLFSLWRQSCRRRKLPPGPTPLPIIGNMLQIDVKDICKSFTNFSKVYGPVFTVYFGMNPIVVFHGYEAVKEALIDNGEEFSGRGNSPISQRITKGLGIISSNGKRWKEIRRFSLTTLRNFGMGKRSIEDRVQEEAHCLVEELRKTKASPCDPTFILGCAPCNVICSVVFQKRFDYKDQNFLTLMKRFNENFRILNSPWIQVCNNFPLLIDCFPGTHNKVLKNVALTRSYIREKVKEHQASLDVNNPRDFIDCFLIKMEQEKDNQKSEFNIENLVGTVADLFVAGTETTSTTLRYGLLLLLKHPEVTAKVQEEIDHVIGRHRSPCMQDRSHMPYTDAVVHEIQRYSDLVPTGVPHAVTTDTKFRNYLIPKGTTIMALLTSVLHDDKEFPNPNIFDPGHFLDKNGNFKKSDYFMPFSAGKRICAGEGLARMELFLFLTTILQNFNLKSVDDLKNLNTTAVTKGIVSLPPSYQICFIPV

CYP450 2D6 = CYP450 2D6 (Homo sapiens, UniProt P10635); test: CYP450 panel, 2D6; conditions: 10 μM; substrate dextromethophan
CYP450 2D6, sequence (P10635 whole entry): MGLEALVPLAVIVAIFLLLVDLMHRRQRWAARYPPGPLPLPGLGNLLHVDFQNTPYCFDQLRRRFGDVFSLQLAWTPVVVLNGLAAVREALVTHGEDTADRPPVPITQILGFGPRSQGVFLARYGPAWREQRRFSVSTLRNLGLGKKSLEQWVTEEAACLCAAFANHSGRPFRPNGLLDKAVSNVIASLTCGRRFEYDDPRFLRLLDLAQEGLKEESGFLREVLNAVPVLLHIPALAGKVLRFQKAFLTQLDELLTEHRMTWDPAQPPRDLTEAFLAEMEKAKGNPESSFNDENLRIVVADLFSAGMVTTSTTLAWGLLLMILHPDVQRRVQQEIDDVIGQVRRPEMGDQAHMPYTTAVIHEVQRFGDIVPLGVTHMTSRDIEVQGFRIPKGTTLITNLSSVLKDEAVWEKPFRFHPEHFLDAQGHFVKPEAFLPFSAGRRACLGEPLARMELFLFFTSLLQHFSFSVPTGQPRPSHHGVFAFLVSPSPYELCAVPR

[8] = Caco-2, A-B Permeability Ranking, 10 μM, 2 hrs
[9] = Caco-2, Mean Papp A-B (10^−6 cm/s), 10 μM, 2 hrs

CYP450 2C19, sequence (P33261 whole entry): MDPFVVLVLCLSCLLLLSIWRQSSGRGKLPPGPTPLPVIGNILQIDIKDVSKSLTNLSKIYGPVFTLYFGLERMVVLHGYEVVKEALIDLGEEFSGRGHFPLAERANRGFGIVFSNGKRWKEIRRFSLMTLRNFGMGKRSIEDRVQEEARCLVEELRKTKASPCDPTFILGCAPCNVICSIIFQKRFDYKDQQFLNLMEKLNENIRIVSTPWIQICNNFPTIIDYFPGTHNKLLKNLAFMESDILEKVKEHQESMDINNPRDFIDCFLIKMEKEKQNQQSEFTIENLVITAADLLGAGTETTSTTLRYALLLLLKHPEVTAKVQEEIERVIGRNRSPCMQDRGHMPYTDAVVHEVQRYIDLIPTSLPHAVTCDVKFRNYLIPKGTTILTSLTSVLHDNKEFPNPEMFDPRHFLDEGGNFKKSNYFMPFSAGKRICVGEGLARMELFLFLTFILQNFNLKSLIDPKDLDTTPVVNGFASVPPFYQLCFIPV

Row | SMILES | 2C19* (CYP450 2C19) | Human (% Reamining @1 hour) [1] | 3A4* (CYP450 3A4) | 3A4^ (CYP450 3A4) | 2C9* (CYP450 2C9) | Papp B→A at 2 h, 10 μM [2] | efflux ratio at 2 h, 10 μM [2] | Papp A→B at 2 h, 10 μM [2, 8] | Papp A→B at 2 h, 10 μM [2, 9] | activity at 0.1 µM [3] | Beagle Dog (% Reamining @2 hour) [4] | activity at 0.01 µM (A549 pERK) | 1A2* (CYP450 1A2) | CD-1 Mouse (% Reamining @1 hour) [5] | Beagle Dog (% Reamining @1 hour) [6] | CD-1 Mouse (% Reamining @2 hour) [7] | Human (% Reamining @2 hour) (Plasma stability, human) | 2B6* (CYP450 2B6) | IC50 (hERG Channel) | 2C8* (CYP450 2C8) | further results
1 | CNS(=O)(=O)Nc1cccc(Cc2c(CN3CCNCC3)c3ccc(OC(=O)N(C)C)cc3oc2=O)c1F [Compound 10] | 4.8 | 80.1% | 17.3 | 16.2 | 1.8 | 3.8 ×10⁻⁶ cm/s | 56.3 | < 1 ×10⁻⁶ cm/s | 0.0676 ×10⁻⁶ cm/s | 42.2% | 96.2% | 27.7% | 0.4 | 91.3% | 73.9% | 97.7% | 92.1% | 22.4 | > 30 µM | −1.0 | 2D6* (CYP450 2D6): −3.4
2 | CNS(=O)(=O)Nc1cccc(Cc2c(CNC3CC3)c3ccc(OC(=O)N(C)C)cc3oc2=O)c1F [Compound 11] | 9.7 | 28.9% | 36.1 | 44.8 | 12.9 | 19.7 ×10⁻⁶ cm/s | 2.15 | > 1 ×10⁻⁶ cm/s | 9.18 ×10⁻⁶ cm/s | – | 97.8% | – | 6.9 | 7.0% | 4.9% | 81.4% | 93.7% | 12.1 | 1.1 µM | 0.8 | 2D6* (CYP450 2D6): 9.8
3 | CNS(=O)(=O)Nc1cccc(Cc2c(CNc3ccn[nH]3)c3ccc(OC(=O)N(C)C)cc3oc2=O)c1F [Compound 12] | 16.0 | 32.9% | 29.2 | 31.9 | 8.4 | 17.9 ×10⁻⁶ cm/s | 16.9 | > 1 ×10⁻⁶ cm/s | 1.06 ×10⁻⁶ cm/s | – | 102.6% | – | 13.0 | 28.2% | 42.8% | 86.6% | 100.5% | 14.9 | > 30 µM | 2.4 | 2D6* (CYP450 2D6): 4.5
4 | CNS(=O)(=O)Nc1cccc(Cc2c(CN3CCN(C)CC3)c3ccc(OC(=O)N(C)C)cc3oc2=O)c1F [Compound 15] | 4.3 | 75.8% | 21.3 | 20.5 | 3.0 | 34.9 ×10⁻⁶ cm/s | 29.3 | > 1 ×10⁻⁶ cm/s | 1.19 ×10⁻⁶ cm/s | – | 89.1% | 73.8% | 7.8 | 77.6% | 46.0% | 87.1% | 98.1% | 16.3 | 6.5 µM | −16.9 | 2D6* (CYP450 2D6): 0.5
5 | CNS(=O)(=O)Nc1cccc(Cc2c(CN3CCN(Cc4ccccc4)CC3)c3ccc(OC(=O)N(C)C)cc3oc2=O)c1F [Compound 16] | 88.4 | 1.4% | 75.1 | 92.1 | 42.4 | 5.61 ×10⁻⁶ cm/s | 0.743 | > 1 ×10⁻⁶ cm/s | 7.55 ×10⁻⁶ cm/s | – | 101.2% | 91.6% | 6.9 | 0.6% | 0.4% | 92.7% | 99.0% | 11.6 | 0.1 µM | 45.5 | 2D6* (CYP450 2D6): 55.0
6 | CCS(=O)(=O)Nc1nccc(Cc2c(CN(C)C)c3ccc(OC(=O)N(C)C)cc3oc2=O)c1F [Compound 148] | – | – | – | – | – | – | – | – | – | 56.5% | – | 49.6% | – | – | – | – | – | – | – | – | –
7 | CN(C)C(=O)Oc1ccc2c(CN3CCNCC3)c(Cc3ccnc(NS(=O)(=O)C4CC4)c3F)c(=O)oc2c1 [Compound 150] | – | – | – | – | – | – | – | – | – | 90.2% | – | 47.4% | – | – | – | – | – | – | – | – | –
8 | CNS(=O)(=O)Nc1cccc(Cc2c(CN3CC4(CCC4)C3)c3ccc(OC(=O)N(C)C)cc3oc2=O)c1F [Compound 153] | – | – | – | – | – | – | – | – | – | 54.1% | – | 50.2% | – | – | – | – | – | – | – | – | –
9 | C#CCNCCc1c(Cc2cccc(NS(=O)(=O)NC)c2F)c(=O)oc2cc(OC(=O)N(C)C)ccc12 [Compound 183] | – | – | – | – | – | – | – | – | – | 65.9% | – | 32.4% | – | – | – | – | – | – | – | – | activity at 10 µM (A549 pERK; 10 uM): 0.82%
10 | CC[C@H](C)C(=O)O[C@H]1C[C@@H](C)C=C2C=C[C@H](C)[C@H](CC[C@@H]3C[C@@H](O)CC(=O)O3)[C@H]21 [Lovastatin] | – | – | – | – | – | – | – | – | – | – | 94.1% | – | – | – | – | 0.6% | 81.8% | – | – | – | –
11 | COc1ccc2[nH]c([S+]([O-])Cc3ncc(C)c(OC)c3C)nc2c1 (stereo not shown) [Omeprazole] | 61.6 | – | – | – | – | – | – | – | – | – | – | – | – | – | – | – | – | – | – | – | –
12 | CC(C)[N+](C)(CCOC(=O)C1c2ccccc2Oc2ccccc21)C(C)C [Propantheline] | – | – | – | – | – | – | – | – | – | – | 58.4% | – | – | – | – | 27.1% | 5.7% | – | – | – | –
13 | O=c1c(O)c(-c2ccc(O)c(O)c2)oc2cc(O)cc(O)c12 [Quercetin] | – | – | – | – | – | – | – | – | – | – | – | – | – | – | – | – | – | – | – | 93.1 | –
14 | CNC(=C[N+](=O)[O-])NCCSCc1ccc(CN(C)C)o1 [Ranitidine] | – | – | – | – | – | – | – | – | – | – | – | – | – | – | – | – | – | – | – | – | Papp A→B at 2 h, 10 μM [2]: < 1 ×10⁻⁶ cm/s
15 | Nc1ccc(S(=O)(=O)Nc2ccnn2-c2ccccc2)cc1 [Sulfaphenazole] | – | – | – | – | 101.2 | – | – | – | – | – | – | – | – | – | – | – | – | – | – | – | –
